US20020103111A1, “Inhibitors of MAdCAM-1-mediated interactions and methods of use therefor” (Millennium Pharmaceuticals, Inc., priority 1996, published 2002)
Where two headings read alike, the source gives them in different places. Bridge positions count the residues as written; N and C are the ends. Ends that are not written are not given here. Peptide text beside a SMILES is read from it. * marks the point of attachment. Butanoyl(4-pyren-1-yl) = O=C(CCCc1ccc2ccc3cccc4ccc1c2c34)*; Cyclopentanecarbonyl = O=C(C1CCCC1)*

Biological target: T1, murine MAdCAM-1 (MAdCAM-1/mCk fusion protein); α4β7-bearing HUT 78 cells (Homo sapiens, UniProt P13612+P26010)
T1 construct: host or cells: HUT 78 cells (endogenous α4β7); The MAdCAM-1/mCk partner was made in house in baculovirus-infected Sf9 insect cells, used as neat supernatant and captured by rat anti-mCk antibody
Assay: Adhesion of HUT 78 cells to MAdCAM-1/mCk fusion protein bound via capture antibody
Format: cell-based
Details: for IC50: HUT 78 cell adhesion to MAdCAM-1/mCk, average of two determinations; for % Adhesion Inhibition 500 μM: 500 μM compound
Method: The compounds of the present invention were evaluated for their biological properties.
A soluble fusion protein comprising murine MAdCAM-1 was produced in a baculovirus expression system and used in the adhesion assay. A fusion gene in which sequences encoding the signal peptide and extracellular domain of murine MAdCAM-1 were fused to sequences encoding a constant region of the murine kappa light chain (mCk) was constructed, and cloned into a baculovirus shuttle vector. Fusion protein produced from the resulting construct contained the integrin binding sequences of murine MAdCAM-1 at the amino-terminus, and the mCk sequence at the carboxy-terminus. Recombinant baculovirus encoding the fusion protein was harvested from infected Sf9 insect cells.
Human T-cell lymphoma cells (HUT 78 cells) activated with Mn^+2 were used for the adhesion assay in a 96-well format. HUT 78 cells were labelled by preincubation with ECECF-AM stain (Molecular Probes). Assays were conducted in a final volume of 200 μl. The adhesion of HUT 78 cells to MAdCAM-1/mCk fusion protein bound to wells via rat anti-mCk capture antibody was assessed in the presence or absence of each compound. […] Percent inhibition and IC50 values were determined.
HUT 78 cells (a human T cell lymphoma line; American Type Culture Collection, Accession No. ATCC TIB 161) were maintained in culture for up to one month in RPMI 1640 supplemented with 10% FCS, 20 mM HEPES, and Pen-Strep (1:100). Just prior to use in adhesion assays, cells were labeled with BCECF-AM as follows: 1×10^7 cells were pelleted at 1000 rpm for 10 minutes and resuspended in 25 mL cold PBS (Phosphate Buffered Saline). The cells were pelleted again, resuspended in cold PBS, and pelleted again. The cell pellet was resuspended in 25 ml PBS and labeled with 50 μl BCECF-AM (1 μg/μL in DMSO) for 30 minutes at 37° C. (BCECF-AM; 2′,7′-bis-(2-carboxyethyl)-5-(and-6)-carboxyflourescein, acetoxymethyl ester). The labeled cells were pelleted at 700 rpm for 10 minutes, resuspended in 25 ml cold Assay Buffer and pelleted.
The assay was performed in a 96-well format. Plates were coated overnight at 4° C. with 53 μl/well of a 5 μg/mL solution of rat anti-mCk in carbonate buffer. The plates were blocked for 1 hour at 37° C. with 100 μL/well of 1% BSA in PBS. The BSA/PBS solution was removed, and 50 μL of MAdCAM-mCk supernatant was added neat to each well. The assay was conducted under conditions in which capture antibody was the limiting reagent.
Cell adhesion was measured in the presence or absence of compounds. The compounds were resuspended in 100% DMSO, subsequently diluted 1:10 in water, and finally diluted again 1:10 in the assay: 50 μL of 2X Assay Bufler, 30 μL water, 20 μL of compound were added to each well. […] Cell adhesion occurred in 30 minutes at ambient temperature, after which plates were washed with 50 mM Tris/2 mM MnCl2, pH 7.2 using an EL 404 Microplate Autowasher (BIO-TEK Instruments) using the following wash parameters: wash volume=500 μL; two wash cycles; wash depth=80; aspirating after each wash.
Additional determinations were conducted as needed, so that each IC50 was determined over a range which encompassed the IC50. Over this range, Four different concentrations were tested in duplicate.
For each compound, a ratio was determined as follows: An average of the readings from duplicate wells was divided by an average of eight control wells (adhesion in the absence of any compound). […] In addition, the concentration (μM) of compound used was plotted against the resulting ratios.
The IC50 was then determined using Kaleidograph software (Abelbeck Software). The complete procedure was repeated again using duplicate wells for each point.

[1] = HuT78, read-out: % Adhesion Inhibition
[2] = HuT78, 500 μM compound, HUT 78 cells, Mn2+ activated, read-out: % Adhesion Inhibition 500 μM

Compound | IC50 (read-out: IC50) [µM] | IC50 (IC50 (μM)) [µM] | further results
CC(C)C[C@H](NC(=O)[C@H](CO)NC(=O)[C@@H](NC(=O)[C@H](CC(=O)O)NC(=O)[C@H](CC(C)C)NC(=O)C(c1ccccc1)(c1ccccc1)c1ccccc1)[C@@H](C)O)C(N)=O [Example 28, Tpa-Leu-Asp-Thr-Ser-Leu] | 0.3 |  | 
C[C@@H](O)[C@H](NC(=O)[C@H](CC(=O)O)NC(=O)CCCc1ccc2ccc3cccc4ccc1c2c34)C(N)=O [Example 53, Pba-Asp-Thr] |  | 13.5 | inhibition at 100 µM [1]: 100%
NH2-Arg-Val-His-Trp-Arg-Gly-Leu-Asp-Thr-Ser-Leu-Gly-Ser-Val-Gln (H-RVHWRGLDTSLGSVQ; not fully specified (C-terminus); printed as NH2-Arg-Val-His-Trp-Arg-Gly-Leu-Asp-Thr-Ser-Leu-Gly-Ser-Val-Gln) [Example 57] |  |  | % Adhesion Inhibition 500 μM (HUT 78 cells, Mn2+ activated): 90%
CC(C)Cc1ccc(C(C)C(=O)N[C@@H](CC(C)C)C(=O)N[C@@H](CC(=O)O)C(=O)N[C@H](C(=O)N[C@@H](CO)C(=O)N[C@@H](CC(C)C)C(N)=O)[C@@H](C)O)cc1 (stereo partly drawn) [Example 19, Impa-Leu-Asp-Thr-Ser-Leu] | 1140 |  | inhibition at 500 µM [2]: 44%
CC(C)C[C@H](NC(=O)[C@H](CO)NC(=O)[C@@H](NC(=O)[C@H](CC(=O)O)NC(=O)[C@H](CC(C)C)NC(=O)CC(c1ccccc1)(c1ccccc1)c1ccccc1)[C@@H](C)O)C(N)=O [Example 37, Tphp-Leu-Asp-Thr-Ser-Leu] | 14 |  | 
CC(C)C[C@H](NC(=O)[C@H](CO)NC(=O)[C@@H](NC(=O)[C@H](CC(=O)O)NC(=O)[C@H](CC(C)C)NC(=O)CCCc1ccc2ccc3cccc4ccc1c2c34)[C@@H](C)O)C(N)=O [Example 36, Pba-Leu-Asp-Thr-Ser-Leu] |  | 4 | 
CC(=O)NCC(=O)N[C@@H](CC(C)C)C(=O)N[C@@H](CC(=O)O)C(=O)N[C@H](C(=O)N[C@@H](CO)C(=O)N[C@@H](CC(C)C)C(N)=O)[C@@H](C)O [Example 9, Ac-Gly-Leu-Asp-Thr-Ser-Leu] (Ac-GLDTSL-NH2) |  |  | inhibition at 500 µM [2]: 58%
CC(=O)N[C@@H](CCCNC(=N)N)C(=O)NCC(=O)N[C@@H](CC(C)C)C(=O)N[C@@H](CC(=O)O)C(=O)N[C@H](C(=O)N[C@@H](CO)C(N)=O)[C@@H](C)O [Example 12, Ac-Arg-Gly-Leu-Asp-Thr-Ser] (Ac-RGLDTS-NH2) | 1790 |  | inhibition at 500 µM [2]: 31%
CC(C)C[C@H](NC(=O)[C@H](CO)NC(=O)[C@@H](NC(=O)[C@H](CC(=O)O)NC(=O)CCCc1ccc2ccc3cccc4ccc1c2c34)[C@@H](C)O)C(N)=O [Example 51, Pba-Asp-Thr-Ser-Leu] ({Butanoyl(4-pyren-1-yl)}-DTSL-NH2) |  | 13.3 | inhibition at 100 µM [1]: 100%
CC(C)C[C@H](NC(=O)[C@H](CO)NC(=O)[C@@H](NC(=O)[C@H](Cc1ccc(O)cc1)NC(=O)[C@H](CC(C)C)NC(=O)CCCc1ccc2ccc3cccc4ccc1c2c34)[C@@H](C)O)C(N)=O [Example 42, Pba-Leu-Tyr-Thr-Ser-Leu] ({Butanoyl(4-pyren-1-yl)}-LYTSL-NH2) |  | 30 | inhibition at 500 µM (HuT78, read-out: % Adhesion Inhibition 500 μM): 100%
CC(=O)N[C@H]1CSSC[C@@H](C(N)=O)NC(=O)[C@H](CC(C)C)NC(=O)[C@H](CO)NC(=O)[C@H]([C@@H](C)O)NC(=O)[C@H](CC(=O)O)NC(=O)[C@H](CC(C)C)NC1=O [Example 4, Ac-Cys*-Leu-Asp-Thr-Ser-Leu-Cys*] (Ac-CLDTSLC-NH2; disulfide 1-7) |  |  | inhibition at 250 µM (HuT78, @250 μM compound, HUT 78 cells, read-out: % Adhesion Inhibition): 51%
CC(C)C[C@H](NC(=O)[C@H](CO)NC(=O)[C@@H](NC(=O)[C@H](CC(=O)O)NC(=O)C1CCCC1)[C@@H](C)O)C(N)=O [Example 50, Cpc-Asp-Thr-Ser-Leu] (Cyclopentanecarbonyl-DTSL-NH2) | 8.9 |  | 
Ac-Arg-Gly-Leu-Asp-Thr-Ser-Leu-Gly (Ac-RGLDTSLG; not fully specified (C-terminus); printed as Ac-Arg-Gly-Leu-Asp-Thr-Ser-Leu-Gly) [Example 59] |  |  | % Adhesion Inhibition 500 μM (HUT 78 cells, Mn2+ activated): 75%
CC(C)C[C@H](NC(=O)[C@H](CO)NC(=O)[C@@H](NC(=O)[C@H](CC(=O)O)NC(=O)[C@H](CC(C)C)NC(=O)c1ccc2ccc3cccc4ccc1c2c34)[C@@H](C)O)C(N)=O [Example 34, Pca-Leu-Asp-Thr-Ser-Leu] |  | 2.1 | 
CC(C)C[C@H](NC(=O)[C@H](CO)NC(=O)[C@@H](NC(=O)[C@H](CC(=O)O)NC(=O)[C@H](CC(C)C)NC(=O)CCCc1ccc2ccc3cccc4ccc1c2c34)[C@@H](C)O)C(N)=O [Example 23, Pba-Leu-Asp-Thr-Ser-Leu] |  | 2.8 | inhibition at 50 µM [1]: 88%
